Experimental findings from patent US20180185510A1, “ANTIBODY DRUG CONJUGATES OF KINESIN SPINDEL PROTEIN (KSP) INHIBITORS WITH ANTI-B7H3-ANTIBODIES” (BAYER PHARMA AKTIENGESELLSCHAFT, priority 2015, published 2018) are described below.

Data set [1] has as its system NCI-H292: human mucoepidermoid lung carcinoma cells. Briefly: MTT assay, cytotoxicity of metabolites, NCI-H292. In kind it is cell-based. To be noted: NCI-H292, 96 h, 96 h incubation. As for the experimental part:
NCI-H292: human mucoepidermoid lung carcinoma cells, ATCC-CRL-1848, standard medium: RPMI 1640 (Biochrom; #FG1215, stab. glutamine)+10% FCS (Biochrom; #S0415).
(§1) The cells were cultivated according to the standard method using the growth media listed under C-1. The test is carried out by detaching the cells with a solution of Accutase in PBS (Biochrom AG #L2143), pelleting, resuspending in culture medium, counting and sowing into a 96-well culture plate with white bottom (Costar #3610) (NCI H292: 2500 cells/well in a total volume of 100 μl). The cells were then incubated in an incubator at 37° C. and 5% carbon dioxide. After 48 h, the medium was replaced. The metabolites in 10 μl of culture medium in concentrations from 10^−5M to 10^−13M were then pipetted to the cells (in triplicate), and the assay was then incubated in an incubator at 37° C. and 5% carbon dioxide. […] To this end, the MTT reagent was incubated with the cells for 4 h, followed by lysis of the cells overnight by addition of the detergent. The dye formed was detected at 570 nm (Infinite M1000 pro, Tecan). The measured data were used to calculate the IC50 of the growth inhibition using the DRC (dose response curve). The proliferation of cells which were not treated with test substance but were otherwise identically treated was defined as the 100% figure.

The nature of data set [2]: Flux assay for cell permeability using Caco-2 cells. To be noted: human, Caco-2.
Data set [3] has as its system KPL4. The data set can be described thus: MTT assay, cytotoxicity of metabolites, KPL4. Format: cell-based. Conditions: KPL4, 96 h, 96 h incubation. How it is done: as §1
Background: Tetrazolium assays rely on reduction of a dye to a coloured formazan, in cell work by metabolically active cells.

Data set [4] deals with T1, motor domain of the human kinesin spindle protein KSP/Eg5 (Homo sapiens, UniProt P52732).
T1 construct: The motor domain of the human kinesin spindle protein KSP/Eg5; purchased tebu-bio/Cytoskeleton Inc 027EG01-XL
T1 sequence (P52732 18-359 limits assumed): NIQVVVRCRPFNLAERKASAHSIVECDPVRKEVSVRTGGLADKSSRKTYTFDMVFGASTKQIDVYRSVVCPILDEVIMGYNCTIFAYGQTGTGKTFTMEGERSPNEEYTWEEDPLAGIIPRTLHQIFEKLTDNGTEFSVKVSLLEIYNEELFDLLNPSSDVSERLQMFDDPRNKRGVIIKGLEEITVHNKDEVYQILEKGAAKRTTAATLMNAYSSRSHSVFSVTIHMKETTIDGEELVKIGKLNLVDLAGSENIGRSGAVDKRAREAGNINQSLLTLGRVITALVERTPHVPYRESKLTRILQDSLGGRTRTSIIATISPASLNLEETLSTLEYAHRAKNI
The data set can be described thus: Inhibition of the kinesin spindle protein, ATPase activity (malachite green). In kind it is biochemical. Conditions: 10 nM KSP/Eg5 motor domain, microtubuli, ATP 500 μM, 2 h RT. As for the experimental part:
The motor domain of the human kinesin spindle protein KSP/Eg5 (tebu-bio/Cytoskeleton Inc, No. 027EG01-XL) was incubated in a concentration of 10 nM with microtubuli (bovine or porcine, tebu-bio/Cytoskeleton Inc) stabilized with 50 μg/ml taxol (Sigma No. T7191-5MG) for 5 min at RT in 15 mM PIPES, pH 6.8 (5 mM MgCl2 and 10 mM DTT, Sigma). […] Incubation was at RT for 2 h. ATPase activity was detected by detecting the inorganic phosphate formed using malachite green (Biomol). […] The positive controls used were monastrol (Sigma, M8515-1 mg) and ispinesib (AdooQ Bioscience A10486). The individual data of the dose-activity curve are eight-fold determinations. The IC50 values are means of two independent experiments.

The target in data set [5] is T2, human B7H4 (RnDSystems, 6576-B7) (human, UniProt Q7Z7D3 29-258, limits assumed).
T2 construct: Bought antigen, detected with an anti-His HRP antibody
T2 sequence (looked up): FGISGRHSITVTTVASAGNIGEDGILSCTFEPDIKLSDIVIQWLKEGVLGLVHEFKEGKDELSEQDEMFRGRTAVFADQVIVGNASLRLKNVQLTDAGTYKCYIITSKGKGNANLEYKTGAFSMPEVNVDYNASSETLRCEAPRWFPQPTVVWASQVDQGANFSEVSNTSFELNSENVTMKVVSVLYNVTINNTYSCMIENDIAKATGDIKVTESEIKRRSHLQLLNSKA
Briefly: ELISA; antibody captured on anti-human IgG Fc, antigen 37 ng/ml, anti-His HRP / Amplex Red. As for the experimental part:
(§2) TPP5706 was synthesized as described above. Binding of TPP5706 to human B7H3 and to human B7H2 and B7H4 was characterized using ELISAs. […] After washing once with PBS, 0.05% Tween, the plate was blocked with 100% Smart Block (Candor) for one hour at 37° C. The antibody to be tested (e.g. TPP5706 or one of its derivatives) was then attached to the plate (2 μg/ml IgG in PBS, 0.05% Tween, 10% Smart Block; 1 hour, room temperature). […] After washing three times, the plate was incubated with Amplex Red for 30 minutes and then read.

Data set [6] addresses T3, human B7H3 (RnDSystems, 2318-B3-050/CF) (human, UniProt Q5ZPR3 29-461).
T3 construct: Bought antigen, detected with an anti-His HRP antibody, so a His tag is implied
T3 sequence (looked up): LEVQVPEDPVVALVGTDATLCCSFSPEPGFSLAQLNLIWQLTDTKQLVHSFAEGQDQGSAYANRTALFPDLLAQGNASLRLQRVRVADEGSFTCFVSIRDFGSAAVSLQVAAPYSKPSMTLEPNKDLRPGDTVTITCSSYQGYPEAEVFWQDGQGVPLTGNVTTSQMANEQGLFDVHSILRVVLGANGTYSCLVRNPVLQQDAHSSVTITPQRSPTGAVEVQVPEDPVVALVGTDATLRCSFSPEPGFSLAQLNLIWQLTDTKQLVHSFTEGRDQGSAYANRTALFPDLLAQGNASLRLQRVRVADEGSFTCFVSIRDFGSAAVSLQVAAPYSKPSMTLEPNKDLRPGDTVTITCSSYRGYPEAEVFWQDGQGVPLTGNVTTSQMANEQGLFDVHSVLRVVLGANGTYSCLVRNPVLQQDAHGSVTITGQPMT
The data set is described as above. How it is done: as §2

Data set [7] concerns the target T4, human B7H2 (RnDSystems, 8206-B7) (human, UniProt O75144 19-258, limits assumed).
T4 construct: Bought antigen, detected with an anti-His HRP antibody
T4 sequence (looked up): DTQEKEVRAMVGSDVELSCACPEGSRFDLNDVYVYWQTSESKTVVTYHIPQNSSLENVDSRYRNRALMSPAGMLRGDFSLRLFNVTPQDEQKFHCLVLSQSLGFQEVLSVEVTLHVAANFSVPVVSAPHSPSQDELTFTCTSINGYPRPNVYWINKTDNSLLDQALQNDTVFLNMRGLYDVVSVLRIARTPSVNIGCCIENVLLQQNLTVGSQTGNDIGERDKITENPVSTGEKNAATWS
Described as above. As for the experimental part:
as §2

Bounds are passed on as bounds.

In general, IC50 refers to the concentration that gives 50% inhibition. With `CC(C)(C)[C@H](c1cc(-c2cc(F)ccc2F)cn1Cc1ccccc1)N(CC[C@H](N)C(=O)NCCNC(=O)CNC(=O)C(CC(=O)O)SC[C@H](N)C(=O)O)C(=O)CO` (stereo partly drawn) [Example M27, 4-[(2-{[2-({(2S)-2-Amino-4-[{(1R)-1-[1-benzyl-4-(2,5-difluorophenyl)-1H-pyrrol-2-yl]-2,2-dimethylpropyl}(glycoloyl)amino]butanoyl}amino)ethyl]amino}-2-oxoethyl)amino]-3-{[(2R)-2-amino-2-carboxyethyl]sulphanyl}-4-oxobutanoic acid-trifluoroacetic acid (1:1)], in data set [1], the IC50 was determined as 276 nM.
A word on the Papp B→A: it is the apparent permeability from the basolateral to the apical side of a cell layer. For the molecule `CC(C)(C)C(c1cc(-c2cc(F)ccc2F)cn1Cc1ccccc1)N(CC[C@H](N)C(=O)NCCNC(=O)CN1C(=O)CC(SC[C@H](N)C(=O)O)C1=O)C(=O)CO.O=C(O)C(F)(F)F` (stereo partly drawn) [Example M1, S-[1-(2-{[2-({(2S)-2-Amino-4-[{(1R)-1-[1-benzyl-4-(2,5-difluorophenyl)-1H-pyrrol-2-yl]-2,2-dimethylpropyl}(glycoloyl)amino]butanoyl}amino)ethyl]amino}-2-oxoethyl)-2,5-dioxopyrrolidin-3-yl]-L-cysteine/trifluoroacetic acid (1:1)], the 50% inhibitory concentration (IC50) in data set [1] and in data set [3] was 500 nM throughout. This molecule gave a Papp B→A at 2 h in data set [2] of 0.78 ×10⁻⁶ cm/s.
Take `CC(C)(C)[C@H](c1cc(-c2cc(F)ccc2F)cn1Cc1ccccc1)N(CC[C@H](N)C(=O)NCCC(=O)N[C@H](CCC(=O)O)C(=O)O)C(=O)CO` [Example M24, N-{(2S)-2-Amino-4-[{(1R)-1-[1-benzyl-4-(2,5-difluorophenyl)-1H-pyrrol-2-yl]-2,2-dimethylpropyl}(glycoloyl)amino]butanoyl}-beta-alanyl-D-glutamic acid-trifluoroacetic acid (1:1)]: the values for the IC50 in data set [1] and in data set [3] were 167 nM and 500 nM, respectively.
With `CC(C)(C)[C@H](c1cc(-c2cc(F)ccc2F)cn1Cc1ccccc1)N(CC[C@H](N)C(=O)NCCC(=O)N[C@@H](CCC(=O)O)C(=O)O)C(=O)CO` [Example M23, N-{(2S)-2-Amino-4-[{(1R)-1-[1-benzyl-4-(2,5-difluorophenyl)-1H-pyrrol-2-yl]-2,2-dimethylpropyl}(glycoloyl)amino]butanoyl}-beta-alanyl-L-glutamic acid-trifluoroacetic acid (1:1)], the IC50 in data set [1] and in data set [3] was 500 nM in each case.
Regarding `CC(C)(C)[C@H](c1cc(-c2cc(F)ccc2F)cn1Cc1ccccc1)N(CC[C@H](N)C(=O)NCCNC(=O)CNC(=O)CC(SC[C@H](N)C(=O)O)C(=O)O)C(=O)CO` (mixture of isomers) [Example M26, 4-[(2-{[2-({(2S)-2-Amino-4-[{(1R)-1-[1-benzyl-4-(2,5-difluorophenyl)-1H-pyrrol-2-yl]-2,2-dimethylpropyl}(glycoloyl)amino]butanoyl}amino)ethyl]amino}-2-oxoethyl)amino]-2-{[(2R)-2-amino-2-carboxyethyl]sulphanyl}-4-oxobutanoic acid-trifluoroacetic acid (1:1)], the IC50 in data set [1] is 63.8 nM. In data set [2], the Papp B→A at 2 h is 1.3 ×10⁻⁶ cm/s.
For `CC(C)(C)[C@H](c1cc(-c2cc(F)ccc2F)cn1Cc1ccccc1)N(CCCN)C(=O)CSC[C@H](NC(=O)CCOCCOCCOCCOCCNC(=O)CNC(=O)C(CC(=O)O)SC[C@H](N)C(=O)O)C(=O)O` (stereo partly drawn) [Example M21, (2R,24S,27R)-27-Amino-2-[({2-[(3-aminopropyl) {(1R)-1-[1-benzyl-4-(2,5-difluorophenyl)-1H-pyrrol-2-yl]-2,2-dimethylpropyl}amino]-2-oxoethyl}sulphanyl)methyl]-24-(carboxymethyl)-4,20,23-trioxo-7,10,13,16-tetraoxa-25-thia-3,19,22-triazaoctacosane-1,28-dioic acid/trifluoroacetic acid (1:2)], it took 2.31 nM to reach half-maximal inhibition in data set [4] (IC50).
On to `CC(C)(C)[C@H](c1cc(-c2cc(F)ccc2F)cn1Cc1ccccc1)N(CCCN)C(=O)CO` [Example M9, N-(3-Aminopropyl)-N-{(1R)-1-[1-benzyl-4-(2,5-difluorophenyl)-1H-pyrrol-2-yl]-2,2-dimethylpropyl}-2-hydroxyacetamide], for which, in data set [4], it took 1.07 nM to reach half-maximal inhibition (IC50).
Turning to `CC(C)(C)[C@H](c1cc(-c2cc(F)ccc2F)cn1Cc1ccccc1)N(CC[C@H](N)C(=O)NCCNC(=O)CNC(=O)C(CC(=O)O)SC[C@H](N)C(=O)O)C(=O)CO` (single isomer, unassigned) [Example M15], the IC50 was 133 nM in data set [1] and 169 nM in data set [3].

B1: TPP-5706 (antibody, human IgG1, kappa, V domains shown)
VH: QVQLQQPGAELVKPGASVKMSCKASGYTFTIYNVHWIKQTPGQGLEWMGTIFPGNGDTSYNQKFKDKATLTTDKSSKTAYMQLNSLTSEDSAVYYCARWDDGNVGFAHWGQGTLVTVSA
VL: DIQMTQSPASLSASVGETVTITCRASENINNYLTWFQQKQGKSPQLLVYHAKTLAEGVPSRFSGSGSGTQFSLKINSLQPEDFGSYYCQHHYGTPPTFGGGTKLEIKR
notes: Chimera of the murine Fv of the antibody from hybridoma PTA-4058 with the Ch1-Ch3 regions of a human IgG1; expressed as complete IgG; also called anti-B7H3 AK1B
With B1, the figures for the “Quotient signal (B7)/signal (buffer)” value in data set [5], in data set [6] and in data set [7] were below 1.5, 294 and below 1.5, respectively.

B2: TPP-3803 (antibody, human IgG1, kappa, V domains shown)
VH: QVKLQQSGAELVKPGASVKLSCKASGYTFTNYDINWVRQRPEQGLEWIGWIFPGDGSTQYNEKFKGKATLTTDTSSSTAYMQLSRLTSEDSAVYFCARQTTATWFAYWGQGTTVTVSS
VL: DIELTQSPTTLSVTPGDRVSLSCRASQSISDYLHWYQQKSHESPRLLIKYASQSISGIPSRFSGSGSGSDFTLSINSVEPEDVGVYYCQNGHSFPLTFGAGTKLELKR
notes: also called anti-B7H3 AK1A
In the case of B2, the “Quotient signal (B7)/signal (buffer)” value in data set [6] worked out at 51.
